Measured values reported in patent US12568972B2, “Pyridazinol compounds and derivatives, preparation methods, herbicidal compositions and applications thereof” (Qingdao Kingagroot Chemical Compound Co., Ltd., priority 2018, dated 2026).

What was measured:
Assay in all cases: Post-emergence test, weed control effect
Format in all cases: in vivo
Settings in all cases: after 3 weeks
Amaranthus retroflexus = system: Amaranthus retroflexus
How it was run: (§1)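 Weeds sown in soil-filled pots and sprayed at 2-3 leaf stage (2-3 weeks after sowing) with compound in acetone/Tween-80/water plus 80% vegetable oil methyl ester synergist at 1500 g/ha. After 3 weeks in the greenhouse, fresh-weight growth inhibition scored on a 0-10 scale (10 = completely dead).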

Chenopodiaceae = system: Chenopodiaceae
How it was run: as §1

Rorippa indica = system: Rorippa indica
How it was run: as §1

Veronica polita = system: Veronica polita
How it was run: as §1

COP(=O)(OC)Oc1cc(C(F)(F)F)nnc1-c1ccc(F)c(Cl)c1 [Compound 1-167]
10: weed control effect, Amaranthus retroflexus (activity level) (Amaranthus retroflexus; Dose 3000 g/ha) | weed control effect, Chenopodiaceae (activity level) (Chenopodiaceae; Dose 3000 g/ha) | weed control effect, Rorippa indica (activity level) (Rorippa indica; Dose 3000 g/ha) | weed control effect, Veronica polita (activity level) (Veronica polita; Dose 3000 g/ha)

Oc1cc(C(F)(F)F)nnc1-c1ccc2cc(Cl)ccc2c1 [Compound 371]
10: weed control effect (activity level), Amaranthus retroflexus (Amaranthus retroflexus; dose 2000 g/ha) | weed control effect (activity level), Chenopodiaceae (Chenopodiaceae; dose 2000 g/ha) | weed control effect (activity level), Rorippa indica (Rorippa indica; dose 2000 g/ha) | weed control effect (activity level), Veronica polita (Veronica polita; dose 2000 g/ha)

O=C(Oc1cc(C(F)(F)F)nnc1-c1ccc(F)cc1)c1ccno1 [Compound 1-109]
10: weed control effect, Amaranthus retroflexus (activity level) (Amaranthus retroflexus; Dose 3000 g/ha) | weed control effect, Chenopodiaceae (activity level) (Chenopodiaceae; Dose 3000 g/ha) | weed control effect, Rorippa indica (activity level) (Rorippa indica; Dose 3000 g/ha) | weed control effect, Veronica polita (activity level) (Veronica polita; Dose 3000 g/ha)

N#Cc1cncc(-c2nnc(C(F)(F)F)cc2O)c1 [Compound 984]
10: weed control effect (activity level), Amaranthus retroflexus (Amaranthus retroflexus; Dose 3000 g/ha) | weed control effect (activity level), Chenopodiaceae (Chenopodiaceae; Dose 3000 g/ha) | weed control effect (activity level), Rorippa indica (Rorippa indica; Dose 3000 g/ha) | weed control effect (activity level), Veronica polita (Veronica polita; Dose 3000 g/ha)

COCC(=O)Oc1cc(C(F)(F)F)nnc1-c1ccc(F)c(F)c1 [Compound 1-71]
10: weed control effect, Amaranthus retroflexus (activity level) (Amaranthus retroflexus; Dose 3000 g/ha) | weed control effect, Chenopodiaceae (activity level) (Chenopodiaceae; Dose 3000 g/ha) | weed control effect, Rorippa indica (activity level) (Rorippa indica; Dose 3000 g/ha) | weed control effect, Veronica polita (activity level) (Veronica polita; Dose 3000 g/ha)

CCCCCCCOC(=O)Oc1cc(C(F)(F)F)nnc1-c1ccc(Cl)c(Cl)c1Cl [Compound 1-38]
10: weed control effect, Amaranthus retroflexus (activity level) (Amaranthus retroflexus; Dose 3000 g/ha) | weed control effect, Chenopodiaceae (activity level) (Chenopodiaceae; Dose 3000 g/ha) | weed control effect, Rorippa indica (activity level) (Rorippa indica; Dose 3000 g/ha) | weed control effect, Veronica polita (activity level) (Veronica polita; Dose 3000 g/ha)

Oc1cc(C(F)(F)F)nnc1-c1c(F)ccnc1Cl [Compound 1005]
10: weed control effect (activity level), Amaranthus retroflexus (Amaranthus retroflexus; Dose 3000 g/ha) | weed control effect (activity level), Chenopodiaceae (Chenopodiaceae; Dose 3000 g/ha) | weed control effect (activity level), Rorippa indica (Rorippa indica; Dose 3000 g/ha) | weed control effect (activity level), Veronica polita (Veronica polita; Dose 3000 g/ha)

O=C(Oc1cc(C(F)(F)F)nnc1-c1ccc(F)cc1)c1ccccc1O [Compound 1-85]
10: weed control effect, Amaranthus retroflexus (activity level) (Amaranthus retroflexus; Dose 3000 g/ha) | weed control effect, Chenopodiaceae (activity level) (Chenopodiaceae; Dose 3000 g/ha) | weed control effect, Rorippa indica (activity level) (Rorippa indica; Dose 3000 g/ha) | weed control effect, Veronica polita (activity level) (Veronica polita; Dose 3000 g/ha)

Cn1cncc1-c1nnc(C(F)(F)F)cc1O [Compound 857]
10: weed control effect (activity level), Amaranthus retroflexus (Amaranthus retroflexus; Dose 3000 g/ha) | weed control effect (activity level), Chenopodiaceae (Chenopodiaceae; Dose 3000 g/ha) | weed control effect (activity level), Rorippa indica (Rorippa indica; Dose 3000 g/ha) | weed control effect (activity level), Veronica polita (Veronica polita; Dose 3000 g/ha)

Oc1cc(C(F)(F)F)nnc1-c1cccnc1I [Compound 969]
10: weed control effect (activity level), Amaranthus retroflexus (Amaranthus retroflexus; Dose 3000 g/ha) | weed control effect (activity level), Chenopodiaceae (Chenopodiaceae; Dose 3000 g/ha) | weed control effect (activity level), Rorippa indica (Rorippa indica; Dose 3000 g/ha) | weed control effect (activity level), Veronica polita (Veronica polita; Dose 3000 g/ha)

Oc1cc(C(F)(F)F)nnc1-c1cccc2cc[nH]c12 [Compound 589]
10: weed control effect (activity level), Amaranthus retroflexus (Amaranthus retroflexus; Dose 3000 g/ha) | weed control effect (activity level), Chenopodiaceae (Chenopodiaceae; Dose 3000 g/ha) | weed control effect (activity level), Rorippa indica (Rorippa indica; Dose 3000 g/ha) | weed control effect (activity level), Veronica polita (Veronica polita; Dose 3000 g/ha)

CCc1cnn(C)c1-c1nnc(C(F)(F)F)cc1O [Compound 809]
10: weed control effect (activity level), Amaranthus retroflexus (Amaranthus retroflexus; Dose 3000 g/ha) | weed control effect (activity level), Chenopodiaceae (Chenopodiaceae; Dose 3000 g/ha) | weed control effect (activity level), Rorippa indica (Rorippa indica; Dose 3000 g/ha) | weed control effect (activity level), Veronica polita (Veronica polita; Dose 3000 g/ha)

COc1ccccc1-c1nnc(C(F)(F)F)cc1O [Compound 94]
10: weed control effect (activity level), Amaranthus retroflexus (Amaranthus retroflexus; dose 1000 g/ha) | weed control effect (activity level), Chenopodiaceae (Chenopodiaceae; dose 1000 g/ha) | weed control effect (activity level), Rorippa indica (Rorippa indica; dose 1000 g/ha) | weed control effect (activity level), Veronica polita (Veronica polita; dose 1000 g/ha)

COc1ncccc1-c1nnc(C(F)(F)F)cc1O [Compound 227]
10: weed control effect (activity level), Amaranthus retroflexus (Amaranthus retroflexus; dose 2000 g/ha) | weed control effect (activity level), Chenopodiaceae (Chenopodiaceae; dose 2000 g/ha) | weed control effect (activity level), Rorippa indica (Rorippa indica; dose 2000 g/ha) | weed control effect (activity level), Veronica polita (Veronica polita; dose 2000 g/ha)

Oc1cc(C(F)(F)F)nnc1-c1ccc(C(F)(F)F)cc1Cl [Compound 769]
10: weed control effect (activity level), Amaranthus retroflexus (Amaranthus retroflexus; Dose 3000 g/ha) | weed control effect (activity level), Chenopodiaceae (Chenopodiaceae; Dose 3000 g/ha) | weed control effect (activity level), Rorippa indica (Rorippa indica; Dose 3000 g/ha) | weed control effect (activity level), Veronica polita (Veronica polita; Dose 3000 g/ha)

Oc1cc(C(F)(F)F)nnc1-c1ccccc1C(F)(F)F [Compound 737]
10: weed control effect (activity level), Amaranthus retroflexus (Amaranthus retroflexus; Dose 3000 g/ha) | weed control effect (activity level), Chenopodiaceae (Chenopodiaceae; Dose 3000 g/ha) | weed control effect (activity level), Rorippa indica (Rorippa indica; Dose 3000 g/ha) | weed control effect (activity level), Veronica polita (Veronica polita; Dose 3000 g/ha)

Oc1cc(C(F)(F)F)nnc1-c1cccnc1C(F)(F)F [Compound 976]
10: weed control effect (activity level), Amaranthus retroflexus (Amaranthus retroflexus; Dose 3000 g/ha) | weed control effect (activity level), Chenopodiaceae (Chenopodiaceae; Dose 3000 g/ha) | weed control effect (activity level), Rorippa indica (Rorippa indica; Dose 3000 g/ha) | weed control effect (activity level), Veronica polita (Veronica polita; Dose 3000 g/ha)

CC/C(C)=N\Oc1cc(C(F)(F)F)nnc1-c1ccc(C)cc1 [Compound 1-170]
10: weed control effect, Amaranthus retroflexus (activity level) (Amaranthus retroflexus; Dose 3000 g/ha) | weed control effect, Chenopodiaceae (activity level) (Chenopodiaceae; Dose 3000 g/ha) | weed control effect, Rorippa indica (activity level) (Rorippa indica; Dose 3000 g/ha) | weed control effect, Veronica polita (activity level) (Veronica polita; Dose 3000 g/ha)

CC/C(CC(C)CC)=N/Oc1cc(C(F)(F)F)nnc1-c1ccnn1C (stereo not drawn) [Compound 1-179]
10: weed control effect, Amaranthus retroflexus (activity level) (Amaranthus retroflexus; Dose 3000 g/ha) | weed control effect, Chenopodiaceae (activity level) (Chenopodiaceae; Dose 3000 g/ha) | weed control effect, Rorippa indica (activity level) (Rorippa indica; Dose 3000 g/ha) | weed control effect, Veronica polita (activity level) (Veronica polita; Dose 3000 g/ha)

Cc1nc2cc(-c3nnc(C(F)(F)F)cc3O)ccc2o1 [Compound 597]
10: weed control effect (activity level), Amaranthus retroflexus (Amaranthus retroflexus; Dose 3000 g/ha) | weed control effect (activity level), Chenopodiaceae (Chenopodiaceae; Dose 3000 g/ha) | weed control effect (activity level), Rorippa indica (Rorippa indica; Dose 3000 g/ha) | weed control effect (activity level), Veronica polita (Veronica polita; Dose 3000 g/ha)

Oc1cc(C(F)(F)F)nnc1-c1cccc(F)c1F [Compound 766]
10: weed control effect (activity level), Amaranthus retroflexus (Amaranthus retroflexus; Dose 3000 g/ha) | weed control effect (activity level), Chenopodiaceae (Chenopodiaceae; Dose 3000 g/ha) | weed control effect (activity level), Rorippa indica (Rorippa indica; Dose 3000 g/ha) | weed control effect (activity level), Veronica polita (Veronica polita; Dose 3000 g/ha)

CCc1cccc(-c2nnc(C(F)(F)F)cc2OS(=O)(=O)c2nccs2)c1 [Compound 1-145]
10: weed control effect, Amaranthus retroflexus (activity level) (Amaranthus retroflexus; Dose 3000 g/ha) | weed control effect, Chenopodiaceae (activity level) (Chenopodiaceae; Dose 3000 g/ha) | weed control effect, Rorippa indica (activity level) (Rorippa indica; Dose 3000 g/ha) | weed control effect, Veronica polita (activity level) (Veronica polita; Dose 3000 g/ha)

Oc1cc(C(F)(F)F)nnc1-c1cn2ncccc2n1 [Compound 570]
10: weed control effect (activity level), Amaranthus retroflexus (Amaranthus retroflexus; Dose 3000 g/ha) | weed control effect (activity level), Chenopodiaceae (Chenopodiaceae; Dose 3000 g/ha) | weed control effect (activity level), Rorippa indica (Rorippa indica; Dose 3000 g/ha) | weed control effect (activity level), Veronica polita (Veronica polita; Dose 3000 g/ha)

Oc1cc(C(F)(F)F)nnc1-c1ccc(F)cc1Cl [Compound 44]
10: weed control effect (activity level), Amaranthus retroflexus (Amaranthus retroflexus; dose 1000 g/ha) | weed control effect (activity level), Chenopodiaceae (Chenopodiaceae; dose 1000 g/ha) | weed control effect (activity level), Rorippa indica (Rorippa indica; dose 1000 g/ha) | weed control effect (activity level), Veronica polita (Veronica polita; dose 1000 g/ha)

Oc1cc(C(F)(F)F)nnc1-c1cccnc1Cl [Compound 205]
10: weed control effect (activity level), Amaranthus retroflexus (Amaranthus retroflexus; dose 2000 g/ha) | weed control effect (activity level), Chenopodiaceae (Chenopodiaceae; dose 2000 g/ha) | weed control effect (activity level), Rorippa indica (Rorippa indica; dose 2000 g/ha) | weed control effect (activity level), Veronica polita (Veronica polita; dose 2000 g/ha)

Oc1cc(C(F)(F)F)nnc1-c1ccccc1Br [Compound 772]
10: weed control effect (activity level), Amaranthus retroflexus (Amaranthus retroflexus; Dose 3000 g/ha) | weed control effect (activity level), Chenopodiaceae (Chenopodiaceae; Dose 3000 g/ha) | weed control effect (activity level), Rorippa indica (Rorippa indica; Dose 3000 g/ha) | weed control effect (activity level), Veronica polita (Veronica polita; Dose 3000 g/ha)

Oc1cc(C(F)(F)F)nnc1-c1cncc2ccccc12 [Compound 637]
10: weed control effect (activity level), Amaranthus retroflexus (Amaranthus retroflexus; Dose 3000 g/ha) | weed control effect (activity level), Chenopodiaceae (Chenopodiaceae; Dose 3000 g/ha) | weed control effect (activity level), Rorippa indica (Rorippa indica; Dose 3000 g/ha) | weed control effect (activity level), Veronica polita (Veronica polita; Dose 3000 g/ha)

Cn1ncc(C(F)F)c1-c1nnc(C(F)(F)F)cc1O [Compound 824]
10: weed control effect (activity level), Amaranthus retroflexus (Amaranthus retroflexus; Dose 3000 g/ha) | weed control effect (activity level), Chenopodiaceae (Chenopodiaceae; Dose 3000 g/ha) | weed control effect (activity level), Rorippa indica (Rorippa indica; Dose 3000 g/ha) | weed control effect (activity level), Veronica polita (Veronica polita; Dose 3000 g/ha)

Oc1cc(C(F)(F)F)nnc1-c1cc(F)cc(/C=C/Cl)c1 [Compound 169]
10: weed control effect (activity level), Amaranthus retroflexus (Amaranthus retroflexus; dose 2000 g/ha) | weed control effect (activity level), Chenopodiaceae (Chenopodiaceae; dose 2000 g/ha) | weed control effect (activity level), Rorippa indica (Rorippa indica; dose 2000 g/ha) | weed control effect (activity level), Veronica polita (Veronica polita; dose 2000 g/ha)

CCCCOC(=S)Oc1cc(C(F)(F)F)nnc1-c1ccc(F)c(F)c1 [Compound 1-157]
10: weed control effect, Amaranthus retroflexus (activity level) (Amaranthus retroflexus; Dose 3000 g/ha) | weed control effect, Chenopodiaceae (activity level) (Chenopodiaceae; Dose 3000 g/ha) | weed control effect, Rorippa indica (activity level) (Rorippa indica; Dose 3000 g/ha) | weed control effect, Veronica polita (activity level) (Veronica polita; Dose 3000 g/ha)
